This passage reports T/C results from PubChem BioAssay AID248 (DTP/NCI, 2004).

Structures are written as SMILES. Several values for one entry are separate records, joined by “and”; a condition that tells them apart may be missing. Equal values may be shown once. Inconclusive results and toxic doses are left out.

For the assay, the system named is L1210 leukemia ip in BDF1 mice, survival T/C. As to the kind of experiment: NCI In Vivo Anticancer Drug Screen. Data for tumor model L1210 Leukemia (intraperitoneal) in B6D2F1 (BDF1) mice. The following applies: endpoint: mean survival time, higher = longer survival. In a few lines: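 Read-out is survival time, reported as the treated-group measurement over the vehicle-control measurement.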

Setting [1] is: dose: 25.0 mg/kg/injection, schedule: Q01DX009 (ip), vehicle: Klucel (hydroxypropylcellulose) (HPC).
The mark [2] stands for this setting: dose: 100.0 mg/kg/injection, schedule: Q01DX009 (ip), vehicle: Klucel (hydroxypropylcellulose) (HPC).
[3] abbreviates: dose: 100.0 mg/kg/injection, schedule: Q04DX003 (ip), vehicle: saline.
The mark [4] stands for this setting: dose: 200.0 mg/kg/injection, schedule: Q01DX009 (ip), vehicle: Klucel (hydroxypropylcellulose) (HPC).
[5] abbreviates: dose: 200.0 mg/kg/injection, schedule: Q04DX003 (ip), vehicle: saline.
Setting [6] is: dose: 400.0 mg/kg/injection, schedule: Q01DX009 (ip), vehicle: Klucel (hydroxypropylcellulose) (HPC).
[7] abbreviates: dose: 400.0 mg/kg/injection, schedule: Q04DX003 (ip), vehicle: saline.
The mark [8] stands for this setting: dose: 100.0 mg/kg/injection, schedule: Q04DX003 (ip), vehicle: saline with Tween-80.
[9] abbreviates: dose: 200.0 mg/kg/injection, schedule: Q04DX003 (ip), vehicle: saline with Tween-80.
Where [10] appears, read: dose: 400.0 mg/kg/injection, schedule: Q04DX003 (ip), vehicle: saline with Tween-80.
[11] abbreviates: dose: 25.0 mg/kg/injection, schedule: Q04DX003 (ip), vehicle: saline.
The mark [12] stands for this setting: dose: 50.0 mg/kg/injection, schedule: Q04DX003 (ip), vehicle: saline.

For `O=C1C(=O)c2ccccc2C(O)=C1CC=C(Cl)Cl`, the T/C (dose: 6.2 mg/kg/injection, schedule: Q01DX009 (ip), vehicle: water) was 94 % of control; the T/C (dose: 6.25 mg/kg/injection, schedule: Q01DX001 (ip), vehicle: saline) was 97 % of control; the T/C (dose: 12.5 mg/kg/injection, schedule: Q01DX001 (ip), vehicle: saline) was 106 % of control; the T/C (dose: 12.5 mg/kg/injection, schedule: Q01DX001 (oral), vehicle: saline) was 97 % of control; the T/C (dose: 12.5 mg/kg/injection, schedule: Q01DX009 (ip), vehicle: water) was 100 % of control and 96 % of control; the T/C (dose: 12.5 mg/kg/injection, schedule: Q03HX024 (ip), vehicle: water) is 89 % of control. For the same compound, the T/C is, setting by setting: (dose: 12.5 mg/kg/injection, schedule: Q04DX003 (ip), vehicle: water) 94 % of control; (dose: 12.5 mg/kg/injection, schedule: Q08DX002 (ip), vehicle: water) 98 % of control; (dose: 25.0 mg/kg/injection, schedule: Q01DX001 (ip), vehicle: saline) 104 % of control; (dose: 25.0 mg/kg/injection, schedule: Q01DX001 (oral), vehicle: saline) 104 % of control; (dose: 25.0 mg/kg/injection, schedule: Q01DX009 (ip), vehicle: water) 102 % of control and 96 % of control; (dose: 25.0 mg/kg/injection, schedule: Q03HX016 (ip), vehicle: water) 89 % of control. Besides, the T/C was 90 % of control (dose: 25.0 mg/kg/injection, schedule: Q03HX024 (ip), vehicle: water); 95 % of control (dose: 25.0 mg/kg/injection, schedule: Q04DX003 (ip), vehicle: water); 95 % of control (dose: 25.0 mg/kg/injection, schedule: Q08DX002 (ip), vehicle: water); 91 % of control (dose: 25.0 mg/kg/injection, schedule: Q## X008 (ip), vehicle: water); 106 % of control (dose: 50.0 mg/kg/injection, schedule: Q01DX001 (ip), vehicle: saline); 102 % of control (dose: 50.0 mg/kg/injection, schedule: Q01DX001 (ip), vehicle: water). Further, the T/C is, setting by setting: (dose: 50.0 mg/kg/injection, schedule: Q01DX001 (oral), vehicle: saline) 98 % of control; (dose: 50.0 mg/kg/injection, schedule: Q01DX009 (ip), vehicle: water) 113 % of control and 100 % of control; (dose: 50.0 mg/kg/injection, schedule: Q03HX016 (ip), vehicle: water) 91 % of control; (dose: 50.0 mg/kg/injection, schedule: Q03HX024 (ip), vehicle: water) 96 % of control; (dose: 50.0 mg/kg/injection, schedule: Q04DX003 (ip), vehicle: water) 97 % of control; (dose: 50.0 mg/kg/injection, schedule: Q08DX002 (ip), vehicle: water) 92 % of control. Further, the T/C (dose: 50.0 mg/kg/injection, schedule: Q## X008 (ip), vehicle: water) was 88 % of control; the T/C (dose: 75.0 mg/kg/injection, schedule: Q03HX024 (ip), vehicle: water) was 90 % of control; the T/C (dose: 75.0 mg/kg/injection, schedule: Q04DX003 (ip), vehicle: water) is 95 % of control; the T/C (dose: 100.0 mg/kg/injection, schedule: Q01DX001 (oral), vehicle: saline) is 97 % of control and 106 % of control; the T/C (dose: 100.0 mg/kg/injection, schedule: Q03HX016 (ip), vehicle: water) is 88 % of control; the T/C (dose: 100.0 mg/kg/injection, schedule: Q03HX024 (ip), vehicle: water) was 92 % of control. For the same compound, the T/C is, setting by setting: (dose: 100.0 mg/kg/injection, schedule: Q08DX002 (ip), vehicle: water) 92 % of control; (dose: 100.0 mg/kg/injection, schedule: Q## X008 (ip), vehicle: water) 92 % of control; (dose: 200.0 mg/kg/injection, schedule: Q03HX016 (ip), vehicle: water) 90 % of control; (dose: 200.0 mg/kg/injection, schedule: Q## X008 (ip), vehicle: water) 94 % of control.

Consider `C/C(=N\NC(=O)C1CCCO1)c1cccc2ccccc12` (configuration not stated), for which the T/C runs as follows: (dose: 12.5 mg/kg/injection, schedule: Q01DX009 (ip), vehicle: Klucel (hydroxypropylcellulose) (HPC)) 97 % of control; under setting [1], 114 % of control.

Turning to `CCOC(=O)NC(C(=O)OC)C(=O)OC`, the T/C is 97 % of control under setting [2]; 100 % of control under setting [3]; 97 % of control under setting [4]; 97 % of control under setting [5]; 97 % of control under setting [6]; 100 % of control under setting [7].

As for `C[n+]1ccc(Nc2ccc(NC(=O)c3ccc(Nc4cc[n+](C)c5ccc([N+](=O)[O-])cc45)cc3)cc2)cc1`, the T/C by setting is: (dose: 1.0 mg/kg/injection, schedule: Q01DX009 (ip), vehicle: water) 99 % of control; (dose: 2.0 mg/kg/injection, schedule: Q01DX009 (ip), vehicle: water) 112 % of control; (dose: 4.0 mg/kg/injection, schedule: Q01DX009 (ip), vehicle: water) 119 % of control; (dose: 8.0 mg/kg/injection, schedule: Q01DX009 (ip), vehicle: water) 116 % of control; (dose: 16.0 mg/kg/injection, schedule: Q01DX009 (ip), vehicle: water) 192 % of control; (dose: 32.0 mg/kg/injection, schedule: Q01DX009 (ip), vehicle: water) 262 % of control. Moreover, the T/C under setting [3] is 201 % of control and 219 % of control; the T/C under setting [5] was 213 % of control; the T/C under setting [7] is 150 % of control and 153 % of control.

Take `CCOc1nc(S(=O)(=O)CC)ncc1C`: the T/C runs as follows: (dose: 100.0 mg/kg/injection, schedule: Q01DX009 (ip), vehicle: saline with Tween-80) 109 % of control; under setting [8], 105 % of control; (dose: 200.0 mg/kg/injection, schedule: Q01DX009 (ip), vehicle: saline with Tween-80) 104 % of control; under setting [9], 100 % of control; (dose: 400.0 mg/kg/injection, schedule: Q01DX009 (ip), vehicle: saline with Tween-80) 87 % of control; under setting [10], 103 % of control.

For the compound `CCN(CC)C(=O)N1C2CCC1CN(C)C2`, the T/C is, setting by setting: (dose: 12.5 mg/kg/injection, schedule: Q01DX009 (ip), vehicle: saline) 91 % of control; (dose: 12.5 mg/kg/injection, schedule: Q04DX003 (ip), vehicle: saline) 103 % of control; (dose: 25.0 mg/kg/injection, schedule: Q01DX009 (ip), vehicle: saline) 95 % of control; under setting [11], 105 % of control; (dose: 50.0 mg/kg/injection, schedule: Q01DX009 (ip), vehicle: saline) 86 % of control; under setting [12], 89 % of control.

For the compound `Cc1cc(C)cc(OCC2CNC(=O)O2)c1` (configuration not stated), the T/C under setting [1] is 101 % of control; the T/C under setting [11] was 90 % of control; the T/C (dose: 50.0 mg/kg/injection, schedule: Q01DX009 (ip), vehicle: Klucel (hydroxypropylcellulose) (HPC)) is 114 % of control; the T/C under setting [12] is 92 % of control; the T/C under setting [2] was 100 % of control; the T/C under setting [4] was 100 % of control. Also, the T/C was 90 % of control under setting [5], 103 % of control under setting [6] and 113 % of control under setting [7].

`O=[N+]([O-])c1ccc(N/N=C\c2ccc(OCc3ccccc3)cc2)c([N+](=O)[O-])c1`: for the setting “dose: 100.0 mg/kg/injection, schedule: Q01DX001 (ip), vehicle: other”, the T/C was 86 % of control.

Turning to `Cc1cc(S(=O)(=O)F)ccc1NC(=O)/C=C/c1ccc([N+](=O)[O-])cc1`, the T/C reads like this: under setting [2], 97 % of control; under setting [6], 92 % of control.

For `C[Si](C)(C)Oc1cc(N=NNC2=CC(=O)c3ccccc3C2=O)c(O)c2ccccc12`, the T/C is 93 % of control (dose: 12.5 mg/kg/injection, schedule: Q04DX003 (ip), vehicle: saline with Tween-80); 93 % of control (dose: 25.0 mg/kg/injection, schedule: Q04DX003 (ip), vehicle: saline with Tween-80); 94 % of control (dose: 50.0 mg/kg/injection, schedule: Q04DX003 (ip), vehicle: saline with Tween-80); 97 % of control under setting [10].

In the case of `N#CC1CC2c3ccccc3C1c1ccccc12` (configuration not stated), the T/C by setting is: under setting [8], 97 % of control; under setting [9], 94 % of control; under setting [10], 100 % of control.
